# According to paper PMC6327999, “Hydroxyl-substituted double Schiff-base condensed 4-piperidone/cyclohexanones as potential anticancer agents with biological evaluation” (Journal of Enzyme Inhibition and Medicinal Chemistry, 2019):
# Assays:
# [1] = Body weight of HepG2-bearing mice; format: in vivo, Balb/c nude mice; details: measured every 2 days during treatment
# Description: (§1) The antitumor effect was investigated on the seven-week-old female Balb/c nude mice (n = 30) weighing 19–21 grams (Shanghai Laboratory Animal Center). Briefly, 0.2 mL HepG2 cells (1 × 10^7/mL) were inoculated subcutaneously into the alar left of each mouse. On the third day after the inoculation, the HepG2-bearing mice were randomly divided into five groups (n = 6/group) and administrated the according drug or solvent. […] The control group was administrated of saline as negative control. The body weight and tumor volumes calculation were recorded from the day of treatment, and the tumor volumes were calculated using the following equation: tumor volume = length × (width)^2 × π/6. Animal experiments were reviewed and approved by the Binzhou Medical University Experimental Animal Committee.
# HepG2 xenografts = assay: In vivo antitumor efficacy, HepG2-bearing nude mice; set-up: species or system Balb/c nude mice
# Description: as §1
# Bax = assay: Western blot, Bax expression; format: cell-based, human; details: HepG2, 3 h, 1.0, 2.0, 4.0 µM, vs negative control
# Description: (§2) The HepG2 cell lines were treated with different dose of by BAP 5c (1.0, 2.0, 4.0 µM, respectively) for 3 hours, then washed twice with PBS, and lysed in ice-cold modified RIPA buffer containing PMSF (RIPA:PMSF = 100:1; the ultimate density of PMSF is 1.0 mM). The lysates were kept for 30 minutes on the ice, and then centrifuged for 15 min at 12000 rpm/min at 4 °C and the supernatant was collected. The proteins were boiled at 95 °C at 5 min with loading buffer (the volume ratio of protein and the loading buffer is 4:1). Each 50 µg protein of cell lysates were separated by 10% SDS-PAGE gel electrophoresis. The proteins were then transferred onto polyvinylidene fluorides membrane. The membranes were probed with antibodies and visualised using an enhanced chemiluminescence (ECL) detection kit according to the manufacturer instruction.
# [2] = tested on: human liver hepatocellular carcinoma cell line (Hepg2); assay: Cytotoxicity, MTT assay, HePG2; format: cell-based
# Excerpt: Compounds 2a–d, 3a–e, 4a–e, 5a–d, and 6a–c were screened against human neoplastic cell lines such as human lung carcinoma cells (A549), human gastric adenocarcinoma cells (SGC7901), human cervical carcinoma cells (HeLa), human liver hepatocellular carcinoma cell line (Hepg2), human chronic myelogenous leukemia cell line (K562), human acute mononuclear granulocyte leukemia (THP-1), human normal heptical cell line (LO2) (Table 1) using modified MTT assay (3-(4,5-dimethyl-2-thiazolyl)-2,5-diphenyl-2-H-tetrazolium bromide, MTT, Dojindo Laboratories, Tokyo, Japan). All cell lines were maintained at 37 °C in a humidified 5% CO2 and 95% air atmosphere. The HePG2 cell lines were cultured in DMEM containing 10% fetal bovine serum. Other cell lines were grown in medium 1640 and supplemented with 10% fetal bovine serum. […] Controls were prepared with 0.1% DMSO (v/v) only. The cells were seeded in a 96-well plate in 200 µL medium per well at a density of 1 × 10^4 cells/well for 24 hours. The cells were treated with serial concentrations of compound and incubated for 24 hours. Cells with only culture media were used as control. After the media was removed, 20 µL of MTT (5 mg/mL) was added then the plates were incubated for 4 hours at 37 °C in cell culture incubator. The MTT containing media were removed and then 150 µL of DMSO was added to dissolve the dark-blue formazan crystals. The optical density (OD) was measured by a multi-well plate reader (TECAN, Männedorf, Switzerland) at 570 nm. The results are expressed as a decrease in the cell viability (%) in comparison to untreated controls. The concentration of each compound was examined in triplicate, and the IC50 values are expressed in Table 1. The concentrations of the compounds were 50, 20, 10, 5, 2.5, 1, 0.5, 0.1, 0.05 and 0.01 µg/mL. […] The concentrations of curcumin used were 100, 50, 25, 12.5, 6.25, 3.125, 1, 0.5 and 0.1 µg/mL.
# [3] = tested on: human cervical carcinoma cells (HeLa); assay: Cytotoxicity, MTT assay, HeLa; format: cell-based
# Excerpt: Compounds 2a–d, 3a–e, 4a–e, 5a–d, and 6a–c were screened against human neoplastic cell lines such as human lung carcinoma cells (A549), human gastric adenocarcinoma cells (SGC7901), human cervical carcinoma cells (HeLa), human liver hepatocellular carcinoma cell line (Hepg2), human chronic myelogenous leukemia cell line (K562), human acute mononuclear granulocyte leukemia (THP-1), human normal heptical cell line (LO2) (Table 1) using modified MTT assay (3-(4,5-dimethyl-2-thiazolyl)-2,5-diphenyl-2-H-tetrazolium bromide, MTT, Dojindo Laboratories, Tokyo, Japan). All cell lines were maintained at 37 °C in a humidified 5% CO2 and 95% air atmosphere. The HePG2 cell lines were cultured in DMEM containing 10% fetal bovine serum. Other cell lines were grown in medium 1640 and supplemented with 10% fetal bovine serum. […] Controls were prepared with 0.1% DMSO (v/v) only. The cells were seeded in a 96-well plate in 200 µL medium per well at a density of 1 × 10^4 cells/well for 24 hours. The cells were treated with serial concentrations of compound and incubated for 24 hours. Cells with only culture media were used as control. After the media was removed, 20 µL of MTT (5 mg/mL) was added then the plates were incubated for 4 hours at 37 °C in cell culture incubator. The MTT containing media were removed and then 150 µL of DMSO was added to dissolve the dark-blue formazan crystals. The optical density (OD) was measured by a multi-well plate reader (TECAN, Männedorf, Switzerland) at 570 nm. The results are expressed as a decrease in the cell viability (%) in comparison to untreated controls. The concentration of each compound was examined in triplicate, and the IC50 values are expressed in Table 1. The concentrations of the compounds were 50, 20, 10, 5, 2.5, 1, 0.5, 0.1, 0.05 and 0.01 µg/mL. Doxorubicin (DOX) and Curcumin were used as positive controls. […] The concentrations of curcumin used were 100, 50, 25, 12.5, 6.25, 3.125, 1, 0.5 and 0.1 µg/mL.
# HepG2 cells = assay: Apoptosis assay, Annexin V-FITC/PI flow cytometry; format: cell-based, human; details: 5c treatment for 24 hours, 1.0, 2.0, 4.0 µM, early and late apoptosis
# Description: HepG2 cells were plated at a density of 1 × 10^5 cells/well in 24-well plates. […] One hundred microliters of such solution (1 × 10^5 cells) was mixed with 5 µL of Annexin V-FITC and 5µL of Propidium Iodide (BD Biosciences, San Jose, CA, USA) according to the manufacturer’s instruction. The mixed solution was gently vortexed and incubated in the dark at room temperature for 15 minutes. Four hundred microliters of 1X binding buffer were then added to each tube and cell apoptosis analysis was performed by flow cytometry (BD FACS Calibur) within 1 hour.
# Bcl-2 = assay: Western blot, Bcl-2 expression; format: cell-based, human; details: HepG2, 3 h, 1.0, 2.0, 4.0 µM, vs negative control
# Description: as §2
# [4] = quotient of the IC50 values towards nonmalignant LO2 cells
smiles,measurement,setting,value
O=C1/C(=C/c2cc(/N=C/c3ccc(O)c(O)c3O)ccc2F)CNC/C1=C\c1cc(/N=C/c2ccc(O)c(O)c2O)ccc1F [5c],body weight change,[1],no apparent change in body weight
same,tumor growth inhibition,HepG2 xenografts; 1.0 mg/kg/d i.p. for 20 days,light inhibitory activity
same,tumor growth inhibition,HepG2 xenografts; 10 mg/kg/d i.p. for 20 days,significantly inhibited the tumor growth
same,expression level of Bax,Bax,up-regulate the expression level of Bax
same,IC50,"[2]; Homo sapiens, HepG2, MTT, 24 hours",600 ± 100 nM
same,HePG2 SI,[2]; [4],24.5
same,IC50,"[3]; Homo sapiens, HeLa, MTT, 24 hours",1500 ± 300 nM
same,HeLa SI,[3]; [4],9.8
same,HepG2 cells apoptosis,HepG2 cells,dose-dependent apoptosis
same,expression level of Bcl-2,Bcl-2,down-regulate the expression level of Bcl-2
